Measurements published in patent US10836759B2, “Thiazole derivatives useful as mutant IDH1 inhibitors for treating cancer” (THE UNITED STATES OF AMERICA, AS REPRESENTED BY THE …, priority 2016, dated 2020).

Columns and labels:
[1] = target: IDH1 R132C (Homo sapiens, UniProt O75874, R132C); experiment: Enzymatic inhibition assay, mutant IDH1 R132C (NADPH depletion coupled to diaphorase/resazurin); format: biochemical; details: IDH1 R132C enzyme, IC50 class
Experimental: (§1) Assays were conducted in a 1536-well black solid-bottom plate with a final assay volume of 9 μL.
For IDH1 R132C, 3 μL of enzyme (0.00032 mg/mL IDH1 R132H, 10% glycerol, 50 mM potassium phosphate pH 6.5, 5 mM MgCl2, 0.03% BSA) were added to the plate, followed by the addition of 23 nL of test compound in DMSO. The plate was lidded and incubated at room temperature for 30 minutes at which time 3 μL of substrate were added (0.012 mM NADPH, 0.6 mM α-KG, 10% glycerol, 50 mM potassium phosphate pH 6.5, 5 mM MgCl2, 0.03% BSA). […]

[2] = target: IDH1 R132H (Homo sapiens, UniProt O75874, R132H); experiment: Enzymatic inhibition assay, mutant IDH1 R132H (NADPH depletion coupled to diaphorase/resazurin); format: biochemical; details: IDH1 R132H enzyme, IC50 class
Experimental: as §1
Specifically, for IDH1 R132H, 3 μL of enzyme (4 mM β-ME, 0.0005 mg/mL IDH1 R132H, 150 mM NaCl, 20 mM Tris pH 7.5, 10 mM MgCl2, 0.05% BSA) were added to the plate, followed by the addition of 23 nL of test compound in DMSO. The plate was lidded and incubated at room temperature for 30 minutes at which time 3 μL of substrate were added (0.016 mM NADPH, 2 mM α-KG, 150 mM NaCl, 20 mM Tris pH 7.5, 10 mM MgCl2, 0.05% BSA). This reaction was incubated at room-temperature for 60 minutes at which time the detection mix was added (0.06 mg/mL diaphorase, 0.036 mM resazurin, 150 mM NaCl, 20 mM Tris pH 7.5, 10 mM MgCl2, 0.05% BSA). […]

IDH1 R132C, sequence (O75874 whole entry R132C): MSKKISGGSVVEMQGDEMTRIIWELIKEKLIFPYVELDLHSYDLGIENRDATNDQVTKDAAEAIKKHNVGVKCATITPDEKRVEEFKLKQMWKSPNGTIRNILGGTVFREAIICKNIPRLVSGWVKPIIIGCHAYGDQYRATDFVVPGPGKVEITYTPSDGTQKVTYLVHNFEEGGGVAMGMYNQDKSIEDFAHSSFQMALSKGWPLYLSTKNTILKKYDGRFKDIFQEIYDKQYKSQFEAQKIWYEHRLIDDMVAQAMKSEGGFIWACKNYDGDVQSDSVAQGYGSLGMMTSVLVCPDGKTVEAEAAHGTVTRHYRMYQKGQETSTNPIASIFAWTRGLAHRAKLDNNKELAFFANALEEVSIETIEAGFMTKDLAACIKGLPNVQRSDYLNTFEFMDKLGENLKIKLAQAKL
IDH1 R132H, sequence (O75874 whole entry R132H): as the sequence (O75874 whole entry R132C) above, with C132H counted along it

SMILES	IC50 [1] [µM]	IC50 [2] [µM]
CCOc1ccc(Cl)c(-n2c(C=C(C)C)c(C(=O)N3CCNCC3)cc(-c3nc(-c4ccc(C(F)F)cc4)cs3)c2=O)c1 [Compound 106]	< 0.3	< 0.3
CC(C)=Cc1c(C(=O)N2C[C@H]3CC[C@@H](C2)N3)cc(-c2nc(-c3ccc(Cl)cc3)cs2)c(=O)n1-c1cc(N(C)C)ccc1Cl [Compound 150]	< 0.3	0.3 to 1
CCc1ccc(Cl)cc1-n1c(C=C(C)C)c(C(=O)N2CCNCC2)cc(-c2nc(-c3ccc(Cl)cc3)cs2)c1=O [Compound 101]	< 0.3	< 0.3
CCOc1ccc(Cl)cc1-n1c(C=C(C)C)c(C(=O)N2CCNC[C@@H]2C)cc(-c2nc(-c3ccc(C(F)(F)F)cc3)cs2)c1=O [Compound 128]	0.3 to 1	< 0.3
CCOc1ccc(C#N)cc1-n1c(C=C(C)C)c(C(=O)N2CCNCC2)cc(-c2nc(-c3ccc(Cl)cc3)cs2)c1=O [Compound 136]	< 0.3	< 0.3
CCc1ccc(OC)cc1-n1c(C=C(C)C)c(C(=O)N2CCNCC2)cc(-c2nc(-c3ccc(C(F)(F)F)cc3)cs2)c1=O [Compound 102]	< 0.3	< 0.3
CCc1ccc(N(C)C)cc1-n1c(C=C(C)C)c(C(=O)N2CC3CCC(C2)N3)cc(-c2nc(-c3ccc(Cl)cc3)cs2)c1=O [Compound 134]	< 0.3	< 0.3
CCOc1ccc(Cl)c(-n2c(C=C(C)C)c(C(=O)N3C[C@H]4CC[C@@H](C3)N4)cc(-c3nc(-c4ccc(Cl)cc4)cs3)c2=O)c1 [Compound 126]	< 0.3	< 0.3
CCOc1ccc(Cl)cc1-n1c(C=C(C)C)c(C(=O)N2C[C@H]3CC[C@@H](C2)N3)cc(-c2nc(-c3ccc(C(F)F)cc3)cs2)c1=O [Compound 125]	< 0.3	< 0.3
CCOc1ccc(Cl)c(-n2c(C=C(C)C)c(C(=O)N3CC4CCC(C3)N4)cc(-c3nc(-c4ccc(OC)nc4)cs3)c2=O)c1 [Compound 138]	< 0.3	< 0.3
CCc1cccc(CC)c1-n1c(C=C(C)C)c(C(=O)N2C[C@H]3CC[C@@H](C2)N3)cc(-c2nc(-c3ccc(C(F)F)nc3)cs2)c1=O [Compound 119]	< 0.3	< 0.3
CCc1cccc(CC)c1-n1c(C=C(C)C)c(C(=O)N2CCN[C@@H](C)C2)cc(-c2nc(-c3ccc(C(F)F)cc3)cs2)c1=O [Compound 108]	< 0.3	< 0.3

Second part, the molecule after the results:

IC50 [1] [µM]	IC50 [2] [µM]	SMILES
0.3 to 1	1 to 5	CCOc1ccc(Cl)cc1-n1c(C=C(C)C)c(C(=O)N2CC3CCC(C2)N3)cc(-c2nc(-c3ccc(Cl)cc3)cs2)c1=O (single isomer, unassigned) [Compound 113-2]
1 to 5	0.3 to 1	CCOc1ccc(Cl)c(-n2c(C=C(C)C)c(C(=O)N3CCNCC3)cc(-c3nc(-c4ccc(Cl)cc4)cs3)c2=O)c1 (single isomer, unassigned) [Compound 139-2]
< 0.3	< 0.3	CCOc1ccc(Cl)cc1-n1c(C=C(C)C)c(C(=O)N2CCNCC2)cc(-c2nc(-c3ccc(C#N)cc3)cs2)c1=O (single isomer, unassigned) [Compound 140-1]
< 0.3	0.3 to 1	CCOc1ccc(Cl)cc1-n1c(C=C(C)C)c(C(=O)N2CC3CCC(C2)N3)cc(-c2nc(-c3ccc(C#N)cc3)cs2)c1=O (single isomer, unassigned) [Compound 141-2]
